{"source": "PubChem BioAssay AID1259340", "about": "(Broad Institute, 2017)", "note": "Activity calls are given as the source filed them.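 The calls were made as follows: active = AC50 no more than ten times the top concentration tested; inconclusive = flat fit with inhibition between 30% and 70%, or unusable fit; inactive = AC50 beyond ten times the top concentration.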", "data": [{"biological_target": "Caspase recruitment domain-containing protein 9 (Homo sapiens) + B-cell lymphoma/leukemia 10 (Homo sapiens) (UniProt Q9H257+O95999)", "sequence (O95999 whole entry, looked up, the tested form may be a part)": "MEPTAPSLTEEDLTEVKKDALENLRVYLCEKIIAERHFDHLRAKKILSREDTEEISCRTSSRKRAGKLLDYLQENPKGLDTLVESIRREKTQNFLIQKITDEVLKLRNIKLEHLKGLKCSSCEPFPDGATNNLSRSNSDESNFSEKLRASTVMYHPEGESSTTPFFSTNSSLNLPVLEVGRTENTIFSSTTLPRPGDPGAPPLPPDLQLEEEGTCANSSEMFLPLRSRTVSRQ", "sequence (Q9H257 whole entry, looked up, the tested form may be a part)": "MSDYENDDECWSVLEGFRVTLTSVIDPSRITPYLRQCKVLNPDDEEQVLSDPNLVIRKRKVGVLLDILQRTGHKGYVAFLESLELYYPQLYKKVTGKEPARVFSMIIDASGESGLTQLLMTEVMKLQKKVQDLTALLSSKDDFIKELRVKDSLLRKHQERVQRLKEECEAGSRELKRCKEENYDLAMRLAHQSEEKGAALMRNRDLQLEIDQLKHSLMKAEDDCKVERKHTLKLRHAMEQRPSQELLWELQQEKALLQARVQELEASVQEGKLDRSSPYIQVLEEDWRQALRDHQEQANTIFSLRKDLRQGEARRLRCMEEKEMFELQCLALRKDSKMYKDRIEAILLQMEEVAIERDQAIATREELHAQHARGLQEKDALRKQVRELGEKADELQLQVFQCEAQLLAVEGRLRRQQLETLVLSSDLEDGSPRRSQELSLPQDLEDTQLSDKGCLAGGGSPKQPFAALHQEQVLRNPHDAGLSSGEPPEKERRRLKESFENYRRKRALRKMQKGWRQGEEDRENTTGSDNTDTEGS", "test": "disruptors of CARD9-BCL10 binding, dose response, selectivity assay for CARD9-TRIM62 disruptor project, cell lysate, HEK293FT lysates, Luminex bead ELISA (AID 1259340)", "settings": "not given", "values": [{"smiles": "Cc1ccc(Nc2nc(C(=O)Nc3ccc(Cl)cc3)nc3ccccc23)cc1", "AC50": "> 160 µM (inactive)"}, {"smiles": "O=C(Nc1nncs1)c1cc(-c2ccco2)nc2ccccc12", "AC50": "68.5 µM"}, {"smiles": "CCN1CCN(C(=O)c2cc(-c3ccco3)nc3ccccc23)CC1", "AC50": "> 160 µM (inactive)"}, {"smiles": "CCc1ccc(Nc2nc(C(=O)NCc3ccc(N(C)C)cc3)nc3ccccc23)cc1", "AC50": "7.97 µM"}, {"smiles": "Cc1ccc(-c2cc(C(=O)NCc3ccco3)c3ccccc3n2)o1", "AC50": "80.3 µM"}, {"smiles": "C=CC(=O)N1CCCC2(CCN(CCN3CCCC3)C2=O)C1", "note": "(configuration not stated)", "AC50": "22.7 µM"}, {"smiles": "CCOc1ccccc1NC(=O)N1CCCC(c2nccn2CCOC)C1", "note": "(configuration not stated)", "AC50": "> 160 µM (inactive)"}, {"smiles": "O=C1CC2(CCN(C(=O)Nc3ccccc3)CC2)CN1Cc1ccc(Cl)cc1", "AC50": "79.7 µM"}, {"smiles": "COc1ccc(-n2c(C)c3c(OC)cccc(=O)c3c2C)cc1", "AC50": "> 160 µM (inactive)"}, {"smiles": "Cc1nc(C)c(C(=O)Nc2ncc([N+](=O)[O-])s2)o1", "AC50": "66 µM"}, {"smiles": "CC(=O)c1cccc(OCC(=O)N(C)CC(=O)NCc2ccco2)c1", "AC50": "> 160 µM (inactive)"}, {"smiles": "Cc1ccc2cc(CN(Cc3ccco3)S(C)(=O)=O)c(=O)[nH]c2c1", "AC50": "> 160 µM (inactive)"}, {"smiles": "NC(=O)c1ccc(CN2C(=O)C3(CCNCC3)Nc3ccccc32)cc1", "AC50": "> 160 µM (inactive)"}, {"smiles": "O=C(NCC1CCCO1)c1cc(-c2ccco2)nc2ccccc12", "note": "(configuration not stated)", "AC50": "> 160 µM (inactive)"}, {"smiles": "O=C(O)CCc1ccc(-c2cccs2)n1NC(=O)c1ccco1", "AC50": "> 160 µM (inactive)"}, {"smiles": "C(=C\\c1ccco1)/c1nc2ccccc2[nH]1", "AC50": "58.6 µM"}, {"smiles": "Cc1cccc2nc(CSCc3ccco3)cn12", "AC50": "> 160 µM (inactive)"}, {"smiles": "O=C(Nc1nc(-c2ccco2)c(-c2ccco2)s1)c1ccc(F)cc1F", "AC50": "> 160 µM (inactive)"}, {"smiles": "C[C@H](CO)N1C[C@H](C)[C@@H](CN(C)CC2CCCCC2)OCCCC[C@H](C)Oc2ccc(NS(=O)(=O)c3ccc(F)cc3)cc2C1=O", "AC50": "> 160 µM (inactive)"}, {"smiles": "O=S(=O)(c1ccc2nc(-c3ccco3)c(-c3ccco3)nc2c1)N1CCOCC1", "AC50": "20.3 µM"}, {"smiles": "O=C(COc1cccnc1[N+](=O)[O-])c1ccc(Cl)s1", "AC50": "40 µM"}, {"smiles": "O=C(Nc1nccs1)c1cc(-c2ccco2)nc2ccccc12", "AC50": "> 160 µM (inactive)"}, {"smiles": "O=C(NC1CC1)c1cc(-c2ccco2)nc2ccccc12", "AC50": "> 160 µM (inactive)"}, {"smiles": "Cc1ccc(-c2nnc(-c3nc(Nc4nc5ccccc5s4)c4ccccc4n3)o2)cc1", "AC50": "64 µM"}, {"smiles": "CN(C)c1ccc(CN2C[C@H]3CC[C@@H]2CN(C(=O)c2ccncc2)C3)cn1", "AC50": "> 160 µM (inactive)"}, {"smiles": "O=C(O)C1Oc2cc3ccccc3cc2O1", "AC50": "> 160 µM (inactive)"}, {"smiles": "O=C1C=C(c2ccccc2)Nc2ccccc2N1", "AC50": "> 160 µM (inactive)"}, {"smiles": "COc1ccc(-c2nnc(-c3nc(Nc4ccc(NC(C)=O)cc4)c4ccccc4n3)o2)cc1", "AC50": "64.5 µM"}, {"smiles": "O=C(Nc1nccs1)c1cc(-c2ccccn2)nc2c(Cl)cccc12", "AC50": "41.1 µM"}, {"smiles": "O=C(O)c1ccc2nc(-c3ccco3)c(-c3ccco3)nc2c1", "AC50": "19.6 µM"}, {"smiles": "O=C(COC(=O)c1cc(-c2cccs2)nc2ccccc12)NCc1ccco1", "AC50": "> 160 µM (inactive)"}, {"smiles": "O=C(NCc1ccco1)c1c2c(nc3ccccc13)CCC2", "AC50": "> 160 µM (inactive)"}, {"smiles": "O=C(NC1(C(F)(F)F)Oc2ccc(Cl)cc2O1)N1CCC2(CC1)OCCO2", "note": "(configuration not stated)", "AC50": "74.8 µM"}, {"smiles": "COc1ccc2nc(-c3ccco3)c(-c3ccco3)nc2c1", "AC50": "39.2 µM"}, {"smiles": "O=C1CS/C(=N\\N=C\\c2ccco2)N1c1ccccc1", "AC50": "> 160 µM (inactive)"}, {"smiles": "c1ccc(-c2nc(-c3ccco3)n3ccccc23)cc1", "AC50": "> 160 µM (inactive)"}, {"smiles": "Nc1ccc2ncccc2c1N", "AC50": "16.1 µM"}]}, {"biological_target": "Caspase recruitment domain-containing protein 9 (Homo sapiens) + B-cell lymphoma/leukemia 10 (Homo sapiens) (UniProt Q9H257+O95999)", "test": "disruptors of CARD9-BCL10 binding, dose response, selectivity assay for CARD9-TRIM62 disruptor project, cell lysate, HEK293FT lysates, Luminex bead ELISA (AID 1259340)", "settings": "at 80 µM (top of the series)", "values": [{"smiles": "CC(C)(C)c1ccc(-c2nc(C#N)c(NCc3ccncc3)o2)cc1", "activity change, negative = inhibition": "inactive"}, {"smiles": "O=S(=O)(Nc1nc2ccc(S(=O)(=O)N3CCCCC3)cc2s1)c1ccccc1", "activity change, negative = inhibition": "inactive"}, {"smiles": "O=C(Nc1nc(-c2ccco2)c(-c2ccco2)s1)c1ccco1", "activity change, negative = inhibition": "inactive"}, {"smiles": "CC(C)C(CC(=O)NCc1ccco1)c1ccco1", "note": "(configuration not stated)", "activity change, negative = inhibition": "inactive"}, {"smiles": "Cc1ccc(-c2nn(-c3ccccc3)cc2CN(Cc2ccccc2)C(=O)CCC(=O)O)o1", "activity change, negative = inhibition": "inactive"}, {"smiles": "C[C@H](CO)N1C[C@H](C)[C@@H](CN(C)CC2CCCCC2)OCCCC[C@H](C)Oc2ccc(NS(C)(=O)=O)cc2C1=O", "activity change, negative = inhibition": "inactive"}, {"smiles": "CC(=O)c1ccc(NC(=O)c2noc3c2CCC3)cc1", "activity change, negative = inhibition": "inactive"}, {"smiles": "CCCN1CCCn2nc(CNC(=O)[C@@H](N)Cc3ccc(O)cc3)cc2C1", "activity change, negative = inhibition": "inactive"}, {"smiles": "CC1(C)Cc2ccccc2-c2nc(-c3ccccc3)oc(=O)c21", "activity change, negative = inhibition": "inactive"}, {"smiles": "O=C(Nc1nc(-c2nc3ccccc3s2)cs1)c1ccco1", "activity change, negative = inhibition": "inactive"}, {"smiles": "OCc1ccc(O)c2ncccc12", "activity change, negative = inhibition": "inactive"}, {"smiles": "CCc1nccn1CCC(=O)N1C[C@H](CO)C[C@H](CN2CCCC2)C1", "activity change, negative = inhibition": "inactive"}, {"smiles": "O=S(=O)(c1ccccc1)N1CC2CN(Cc3ccc(O)cc3)C2C1", "note": "(configuration not stated)", "activity change, negative = inhibition": "inactive"}, {"smiles": "O=[N+]([O-])c1ccc2nn(Cc3ccccc3)cc2c1", "activity change, negative = inhibition": "inactive"}, {"smiles": "CCN1CCOC(=O)C1CC(=O)Nc1cccc(C)c1", "note": "(configuration not stated)", "activity change, negative = inhibition": "inactive"}, {"smiles": "NC(=O)C1(N2CCCCC2)CCN(c2ncc(NC(=O)c3ccc(Cl)cc3)cc2C(=O)O)CC1", "activity change, negative = inhibition": "inactive"}, {"smiles": "O=C(NCCCN1CCOCC1)c1cc(-c2ccco2)nc2ccccc12", "activity change, negative = inhibition": "inactive"}, {"smiles": "O=C(NCCc1ccccc1)c1cc2cccnc2n(Cc2ccccc2)c1=O", "activity change, negative = inhibition": "inactive"}, {"smiles": "NC(=O)C1(N2CCCCC2)CCN(c2ccc(NC(=O)c3ccccc3F)cc2C(=O)O)CC1", "activity change, negative = inhibition": "inactive"}, {"smiles": "O=C(COC(=O)c1cc(-c2ccco2)nc2ccccc12)NCc1ccccc1", "activity change, negative = inhibition": "inactive"}, {"smiles": "O=C(Nc1nnc(-c2ccco2)s1)c1ccccc1", "activity change, negative = inhibition": "inactive"}, {"smiles": "CCc1nc(OCc2ccco2)c2sc3nc4c(cc3c2n1)COC(C)(C)C4", "activity change, negative = inhibition": "inactive"}, {"smiles": "CC1=CCC(C(=O)O)C(C(=O)NC2CCCCC2)C1", "note": "(configuration not stated)", "activity change, negative = inhibition": "inactive"}, {"smiles": "Cc1cncc(-c2ccc(S(N)(=O)=O)cc2F)c1", "activity change, negative = inhibition": "inactive"}, {"smiles": "CC1CCN(c2nc(-c3ccco3)c3c(c2C#N)CC(C)(C)OC3)CC1", "activity change, negative = inhibition": "inactive"}, {"smiles": "NC(=O)C1(N2CCCCC2)CCN(c2ccc(NC(=O)c3cccc(Cl)c3)cc2C(=O)O)CC1", "activity change, negative = inhibition": "inactive"}, {"smiles": "COC[C@]1(O)CCN(C(=O)CCN(C)S(C)(=O)=O)CC1(C)C", "activity change, negative = inhibition": "inactive"}, {"smiles": "Cc1ccc(C(=O)Nc2ccc(N3CCC(C(N)=O)(N4CCCCC4)CC3)c(C(=O)O)c2)cc1", "activity change, negative = inhibition": "inactive"}, {"smiles": "CC(C(=O)N1CCCC1)N1CCN(c2ccccc2O)CC1", "note": "(configuration not stated)", "activity change, negative = inhibition": "inactive"}, {"smiles": "O=C(Cc1ccc(S(=O)(=O)N2CCOCC2)s1)Nc1nc2c(s1)CCCC2", "activity change, negative = inhibition": "inactive"}, {"smiles": "CCn1ccnc1C1CCN(C(=O)CCn2c(C)nc3ccccc32)CC1", "activity change, negative = inhibition": "inactive"}, {"smiles": "Cc1ccc(C(=O)Nc2cnc(N3CCC(C(N)=O)(N4CCCCC4)CC3)c(C(=O)O)c2)cc1", "activity change, negative = inhibition": "inactive"}, {"smiles": "O=C(Nc1ccc(OCC(=O)N2CCOCC2)cc1)c1cncc(Br)c1", "activity change, negative = inhibition": "inactive"}, {"smiles": "Cc1cccc(Nc2nc(C(=O)Nc3cc(F)ccc3F)nc3ccccc23)c1", "activity change, negative = inhibition": "inactive"}, {"smiles": "CCOC(=O)C1CCN(C(=O)CN(Cc2ccccc2)S(C)(=O)=O)CC1", "activity change, negative = inhibition": "inactive"}, {"smiles": "CCCN1CCCn2nc(CNC(=O)[C@H]3CC[C@@H](N)C3)cc2C1", "activity change, negative = inhibition": "inactive"}, {"smiles": "c1coc(-c2cn3ccc4ccccc4c3n2)c1", "activity change, negative = inhibition": "inactive"}, {"smiles": "Cc1ccc(N2C(=O)c3ccccc3C2C(=O)c2ccc(O)cc2O)cc1", "note": "(configuration not stated)", "activity change, negative = inhibition": "inactive"}, {"smiles": "CCCc1oc(C(=O)O)cc1CN", "activity change, negative = inhibition": "inactive"}, {"smiles": "O=C(NCCc1ccco1)c1ccc(OCc2cn3ccccc3n2)cc1", "activity change, negative = inhibition": "inactive"}, {"smiles": "c1cn(CCc2noc(C3CCCC3)n2)c(-c2cc3n(n2)CCCNC3)n1", "activity change, negative = inhibition": "inactive"}, {"smiles": "N#CNc1nc(O)cc(=O)[nH]1", "activity change, negative = inhibition": "inactive"}, {"smiles": "NC(=O)C1(N2CCCCC2)CCN(c2ncc(NC(=O)c3ccccc3)cc2C(=O)O)CC1", "activity change, negative = inhibition": "inactive"}, {"smiles": "O=c1/c(=C/c2ccco2)sc2nc3ccccc3n12", "activity change, negative = inhibition": "inactive"}, {"smiles": "COCCC(=O)N1CCCC2(CCN(CCN3CCCC3)C2=O)C1", "note": "(configuration not stated)", "activity change, negative = inhibition": "inactive"}, {"smiles": "O=C(O)COc1ccc(-n2cccc2)cc1", "activity change, negative = inhibition": "inactive"}, {"smiles": "COc1ccc(S(=O)(=O)c2ccccc2)cc1NS(=O)(=O)c1cccc(C(=O)O)c1", "activity change, negative = inhibition": "inactive"}, {"smiles": "Cc1ccc(S(=O)(=O)Cc2ccc(C(=O)N3CCC4(CC3)OCCO4)o2)cc1", "activity change, negative = inhibition": "inactive"}, {"smiles": "O=C(COC(=O)c1ccc(S(=O)(=O)NCc2ccco2)cc1)Nc1ccc(Cl)cn1", "activity change, negative = inhibition": "inactive"}, {"smiles": "Cc1cnc(C)c(N2CCN(C(=O)[C@H]3CC[C@@H](N)C3)CC2)n1", "activity change, negative = inhibition": "inactive"}]}]}
